From patent US20210214758A1, “METHODS AND TOOLS FOR DETERMINING CLONAL RELATEDNESS AND PREDICTING CLONAL TRAITS” (priority 2018, published 2021)

System: Klebsiella isolates
Test: Antibiotic susceptibility of Klebsiella clinical isolates per 7-SNP clonotype (Lookup Table 1; disk diffusion)
Assay type: cell-based, Klebsiella spp.
Experimental: In further embodiments, the Lookup Table is Lookup Table 1. The information contained in Lookup Table 1 below was obtained from urine specimens from patients with Klebsiella infections from several clinics within different regions of the United States. CT=clonotypes determined using a 7-SNP combination: phoE54; rpoB130; infB279; mdh315; phoE336; phoE354; and mdh429.
Next, antibiotic resistance was determined for all 387 Klebsiella isolates in the discovery set. Antibiotic testing was carried out according to the standard disk diffusion method as described in the Clinical and Laboratory Standards Institute (M100 Performance Standards for Antimicrobial Susceptibility Testing, 27th Edition, 2017). […] Since almost all Klebsiella isolates are known to be resistant to AMP and sensitive to IMI, TET is not used for treatment of urinary tract infections, and ESBL production is partially reflected in resistance to CTR, these antibiotics were not included for further analysis.
To aid in clinical decision-making and to translate clonotype information to treatment selection, Lookup Table 1 was generated. […] The information contained in Lookup Table 1 was obtained from urine specimens from patients with Klebsiella infections from several clinics within different regions of the United States. Indications of allowance or non-recommendation were determined based on a 20% resistance threshold to the indicated antibiotic; i.e., the antibiotic is recommended when more than 80% of the tested isolates within the indicated clonotype were susceptible to the indicated antibiotic, and was cautioned against when less than 80% of the isolates were susceptible to the antibiotic.

Molecule: amoxicillin/clavulanate [AMC]
- susceptibility, % (CT 000): 92%
- susceptibility, % (CT 001): 100%
- susceptibility, % (CT 010): 100%
- susceptibility, % (CT 011): 91%
- susceptibility, % (CT 031): 67%
- susceptibility, % (CT 040): 75%
- susceptibility, % (CT 050): 90%
- susceptibility, % (CT 051): 90%
- susceptibility, % (CT 071): 80%
- susceptibility, % (CT 100): 86%
- susceptibility, % (CT 110): 100%
- susceptibility, % (CT 111): 90%
- susceptibility, % (CT 130): 98%
- susceptibility, % (CT 131): 69%
- susceptibility, % (CT 141): 100%
- susceptibility, % (CT 150): 87%
- susceptibility, % (CT 151): 78%
- susceptibility, % (CT 160): 100%
- susceptibility, % (CT 170): 96%
- susceptibility, % (CT 171): 92%
- susceptibility, % (CT 200): 69%
- susceptibility, % (CT 201): 89%
- susceptibility, % (CT 210): 71%
- susceptibility, % (CT 211): 90%
- susceptibility, % (CT 230): 100%
- susceptibility, % (CT 231): 100%
- susceptibility, % (CT 240): 0%
- susceptibility, % (CT 241): 100%
- susceptibility, % (CT 250): 100%
- susceptibility, % (CT 251): 93%
- susceptibility, % (CT 271): 96%
- susceptibility, % (CT 300): 100%
- susceptibility, % (CT 301): 96%
- susceptibility, % (CT 310): 80%
- susceptibility, % (CT 311): 80%
- susceptibility, % (CT 330): 95%
- susceptibility, % (CT 331): 86%
- susceptibility, % (CT 350): 83%
- susceptibility, % (CT 351): 92%
- susceptibility, % (CT 370): 100%
- susceptibility, % (CT 371): 75%
- susceptibility, % (CT 411): 100%
- susceptibility, % (CT 450): 100%
- susceptibility, % (CT 451): 100%
- susceptibility, % (CT 510): 100%
- susceptibility, % (CT 511): 100%
- susceptibility, % (CT 530): 93%
- susceptibility, % (CT 531): 83%
- susceptibility, % (CT 550): 86%
- susceptibility, % (CT 551): 50%
- susceptibility, % (CT 570): 75%
- susceptibility, % (CT 571): 100%
- susceptibility, % (CT 611): 100%
- susceptibility, % (CT 630): 100%
- susceptibility, % (CT 650): 91%
- susceptibility, % (CT 651): 92%
- susceptibility, % (CT 670): 100%
- susceptibility, % (CT 710): 100%
- susceptibility, % (CT 730): 60%
- susceptibility, % (CT 731): 98%
- susceptibility, % (CT 750): 95%
- susceptibility, % (CT 751): 100%
- susceptibility, % (CT 771): 100%
- susceptibility, % (CT Any Klebsiella spp.): 87%

Molecule: C[C@@H]1O[C@@H]1P(=O)(O)O [FOS, fosfomycin]
- susceptibility, % (CT 000): 63%
- susceptibility, % (CT 001): 0%
- susceptibility, % (CT 010): 33%
- susceptibility, % (CT 011): 9%
- susceptibility, % (CT 031): 33%
- susceptibility, % (CT 040): 25%
- susceptibility, % (CT 050): 29%
- susceptibility, % (CT 051): 41%
- susceptibility, % (CT 071): 80%
- susceptibility, % (CT 100): 71%
- susceptibility, % (CT 110): 0%
- susceptibility, % (CT 111): 30%
- susceptibility, % (CT 130): 29%
- susceptibility, % (CT 131): 36%
- susceptibility, % (CT 141): 0%
- susceptibility, % (CT 150): 42%
- susceptibility, % (CT 151): 43%
- susceptibility, % (CT 160): 0%
- susceptibility, % (CT 170): 39%
- susceptibility, % (CT 171): 22%
- susceptibility, % (CT 200): 43%
- susceptibility, % (CT 201): 26%
- susceptibility, % (CT 210): 45%
- susceptibility, % (CT 211): 43%
- susceptibility, % (CT 230): 100%
- susceptibility, % (CT 231): 100%
- susceptibility, % (CT 240): 100%
- susceptibility, % (CT 241): 0%
- susceptibility, % (CT 250): 55%
- susceptibility, % (CT 251): 40%
- susceptibility, % (CT 271): 38%
- susceptibility, % (CT 300): 0%
- susceptibility, % (CT 301): 24%
- susceptibility, % (CT 310): 33%
- susceptibility, % (CT 311): 35%
- susceptibility, % (CT 330): 40%
- susceptibility, % (CT 331): 32%
- susceptibility, % (CT 350): 44%
- susceptibility, % (CT 351): 35%
- susceptibility, % (CT 370): 25%
- susceptibility, % (CT 371): 50%
- susceptibility, % (CT 411): 50%
- susceptibility, % (CT 450): 33%
- susceptibility, % (CT 451): 33%
- susceptibility, % (CT 510): 50%
- susceptibility, % (CT 511): 100%
- susceptibility, % (CT 530): 14%
- susceptibility, % (CT 531): 33%
- susceptibility, % (CT 550): 33%
- susceptibility, % (CT 551): 36%
- susceptibility, % (CT 570): 50%
- susceptibility, % (CT 571): 25%
- susceptibility, % (CT 611): 33%
- susceptibility, % (CT 630): 0%
- susceptibility, % (CT 650): 37%
- susceptibility, % (CT 651): 24%
- susceptibility, % (CT 670): 0%
- susceptibility, % (CT 710): 33%
- susceptibility, % (CT 730): 21%
- susceptibility, % (CT 731): 43%
- susceptibility, % (CT 750): 60%
- susceptibility, % (CT 751): 17%
- susceptibility, % (CT 771): 36%
- susceptibility, % (CT Any Klebsiella spp.): 41%

Molecule: CN(C)[C@@H]1C(O)=C(C(N)=O)C(=O)[C@@]2(O)C(O)=C3C(=O)c4c(O)cccc4[C@@](C)(O)[C@H]3C[C@@H]12 [TET, tetracycline]
- susceptibility, % (CT 000): 93%
- susceptibility, % (CT 001): 0%
- susceptibility, % (CT 010): 67%
- susceptibility, % (CT 011): 73%
- susceptibility, % (CT 031): 67%
- susceptibility, % (CT 040): 50%
- susceptibility, % (CT 050): 76%
- susceptibility, % (CT 051): 85%
- susceptibility, % (CT 071): 80%
- susceptibility, % (CT 100): 100%
- susceptibility, % (CT 110): 100%
- susceptibility, % (CT 111): 90%
- susceptibility, % (CT 130): 88%
- susceptibility, % (CT 131): 52%
- susceptibility, % (CT 141): 100%
- susceptibility, % (CT 150): 80%
- susceptibility, % (CT 151): 75%
- susceptibility, % (CT 160): 100%
- susceptibility, % (CT 170): 91%
- susceptibility, % (CT 171): 81%
- susceptibility, % (CT 200): 83%
- susceptibility, % (CT 201): 83%
- susceptibility, % (CT 210): 76%
- susceptibility, % (CT 211): 88%
- susceptibility, % (CT 230): 0%
- susceptibility, % (CT 231): 100%
- susceptibility, % (CT 240): 100%
- susceptibility, % (CT 241): 100%
- susceptibility, % (CT 250): 85%
- susceptibility, % (CT 251): 83%
- susceptibility, % (CT 271): 79%
- susceptibility, % (CT 300): 0%
- susceptibility, % (CT 301): 88%
- susceptibility, % (CT 310): 93%
- susceptibility, % (CT 311): 80%
- susceptibility, % (CT 330): 80%
- susceptibility, % (CT 331): 75%
- susceptibility, % (CT 350): 83%
- susceptibility, % (CT 351): 86%
- susceptibility, % (CT 370): 75%
- susceptibility, % (CT 371): 100%
- susceptibility, % (CT 411): 100%
- susceptibility, % (CT 450): 83%
- susceptibility, % (CT 451): 100%
- susceptibility, % (CT 510): 100%
- susceptibility, % (CT 511): 100%
- susceptibility, % (CT 530): 75%
- susceptibility, % (CT 531): 100%
- susceptibility, % (CT 550): 75%
- susceptibility, % (CT 551): 93%
- susceptibility, % (CT 570): 75%
- susceptibility, % (CT 571): 100%
- susceptibility, % (CT 611): 67%
- susceptibility, % (CT 630): 100%
- susceptibility, % (CT 650): 83%
- susceptibility, % (CT 651): 92%
- susceptibility, % (CT 670): 100%
- susceptibility, % (CT 710): 67%
- susceptibility, % (CT 730): 79%
- susceptibility, % (CT 731): 85%
- susceptibility, % (CT 750): 95%
- susceptibility, % (CT 751): 100%
- susceptibility, % (CT 771): 100%
- susceptibility, % (CT Any Klebsiella spp.): 82%
